Article PMC11942905, “Identification of a Selective Inhibitor of Human NFS1, a Cysteine Desulfurase Involved in Fe-S Cluster Assembly, via Structure-Based Virtual Screening” (International Journal of Molecular Sciences, 2025)

Legend:
Format in all cases: biochemical
[1] = molecular target: T1, human NFS1 (Homo sapiens, UniProt Q9Y697); assay: NFS1 inhibition assay (H2S-producing, methylene blue)
T1 construct: His tag (N); made in house; host or cells: E. coli BL21(DE3)
Experimental: The 42 candidate compounds were tested for their inhibitory effects on human NFS1 using an in vitro H2S-producing assay. […] Subsequently, the effects of the selected compounds (100 µM) on human NFS1 activity were evaluated.
The activity of NFS1 was determined using a methylene blue assay as described previously, with some modifications. Briefly, reaction mixtures (200 μL) containing 50 mM of Tris-HCl (pH 8.0), 10 μM of PLP, 1 mM of DTT, and 10 μg of NFS1 were preincubated at 37 °C for 3 min. The reaction was then initiated by adding 1 mM of cysteine. After 15 min of incubation at 37 °C, the reaction was quenched by adding 25 μL of 20 mM N,N-dimethyl-p-phenylenediamine in 7.2 M of HCl and 25 μL of 30 mM FeCl3 in 1.2 M of HCl. Subsequently, the reaction mixtures were incubated for another 15 min at 37 °C, followed by centrifugation at 12,000 rpm for 10 minutes to remove the precipitates. The absorbance of the supernatant was measured at 670 nm. A reaction mixture without the substrate cysteine was used as the negative control. The H2S concentration was calculated based on a standard curve prepared using various concentrations of sodium sulfide (Na2S).
For the NFS1 inhibition assays, all test compounds were dissolved in dimethyl sulfoxide (DMSO) to prepare 10 mM stock solutions, which were stored at −80 °C. The stock solutions were diluted to the appropriate concentrations with 50 mM of Tris-HCl (pH 8.0) as required for the experiments. A reaction mixture containing DMSO but no test compounds was used as a negative control. The dose-dependent effects of the inhibitors on NFS1 activity were determined using the methylene blue assay described above. The IC50 values of the inhibitors were calculated by adding different concentrations of the inhibitors to the enzyme reaction mixtures.

[2] = molecular target: T2, NFS1 H156A (Homo sapiens, UniProt Q9Y697, H156A); assay: H2S-producing assay, NFS1 H156A mutant
T2 construct: His tag (N); made in house; host or cells: E. coli BL21(DE3)
Experimental: To further validate the accuracy of the simulated results, the residues Cys158, Glu387, Lys157, and His156 were mutated to alanine using site-directed mutagenesis.
For the expression and purification of NFS1Δ1-55/ISD11 in E. coli, the plasmid pNFS1-ISD11 was transformed into BL21(DE3) cells. The cells were grown at 37 °C in 1 L cultures of LB medium containing chloramphenicol (50 μg/ml) until the optical density at 600 nm (OD600) reached 0.6–0.8. Protein expression was induced by adding 0.1 mM isopropyl β-D-1-thiogalactopyranoside (IPTG), followed by an additional 12 h of incubation at 25 °C. The cells were harvested by centrifugation at 8000 rpm for 10 min at 4 °C, then resuspended in lysis buffer containing 50 mM phosphate-buffered saline (PBS, pH 7.4), 500 mM NaCl, 100 mg/L lysozyme, 30 mM imidazole, and 1 mM phenylmethanesulfonyl fluoride (PMSF). The resuspended cells were incubated on ice for 1 h, followed by sonication using an Ultrasonic Cell Disruption System (Scientz, Ningbo, China). The supernatant was obtained by centrifugation at 12,000 rpm for 30 min at 4 °C and was loaded onto a HisTrap FF column (GE Healthcare, Chicago, MA, USA) pre-equilibrated with lysis buffer. […] The protein concentration was measured using a BCA protein assay reagent kit (TransGen Biotech, Beijing, China).

[3] = molecular target: T3, human cystathionine-β-synthase (CBS) (Homo sapiens, UniProt P35520); assay: Selectivity assay, H2S-producing activity of CBS; settings: at 100 µM
T3 construct: made in house; host or cells: E. coli
T3 sequence (P35520 1-551): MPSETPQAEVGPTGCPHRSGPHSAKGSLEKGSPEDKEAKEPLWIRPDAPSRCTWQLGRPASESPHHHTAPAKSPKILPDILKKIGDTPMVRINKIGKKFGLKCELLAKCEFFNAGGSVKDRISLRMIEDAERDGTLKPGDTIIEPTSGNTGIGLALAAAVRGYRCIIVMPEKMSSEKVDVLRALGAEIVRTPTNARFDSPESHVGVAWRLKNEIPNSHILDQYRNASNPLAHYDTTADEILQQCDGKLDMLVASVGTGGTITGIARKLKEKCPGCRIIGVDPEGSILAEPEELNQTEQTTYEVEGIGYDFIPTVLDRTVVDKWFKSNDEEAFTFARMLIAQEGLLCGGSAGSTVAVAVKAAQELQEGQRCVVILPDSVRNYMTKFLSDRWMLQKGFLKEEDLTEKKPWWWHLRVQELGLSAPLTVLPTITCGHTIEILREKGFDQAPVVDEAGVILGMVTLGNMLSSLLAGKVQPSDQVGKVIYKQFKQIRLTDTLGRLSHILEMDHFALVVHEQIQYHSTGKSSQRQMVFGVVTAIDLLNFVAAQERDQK
Experimental: To evaluate the selectivity of Compounds 53 and 56, their effects on the activities of two other PLP-dependent enzymes, human cystathionine-β-synthase (CBS) and cystathionine-γ-lyase (CSE), were determined using a H2S-producing assay. Human CBS and CSE were expressed and purified in E. coli with a purity exceeding 90%, as confirmed by SDS-PAGE (Figures S4A and S5A). Subsequently, the H2S-producing activities of CBS and CSE were assessed in the presence of different concentrations of Compounds 53 and 56. A widely used CBS inhibitor, AOAA, and a specific CSE inhibitor, PAG, were used as positive controls (Figures S4B and S5B).
The H2S-producing activity of CBS was measured as previously described. The reaction mixture (200 μL) contained 50 mM of Hepes buffer (pH 7.4), 2 mM of homocysteine, 10 μM of PLP, 0.4 mM of lead nitrate, and 5 μg of CBS protein. It was preincubated at 37 °C for 3 min, and the reaction was initiated by the addition of 2 mM of cysteine. The reaction was monitored in a multifunctional microplate reader at 37 °C for 10 min. An extinction coefficient of 5500 M^−1 cm^−1 at 390 nm was used to calculate the lead sulfide concentration. The method used to determine CSE activity in the H2S-producing assay was identical to the CBS assay, except that 1 mM of cysteine was used as the sole substrate. […]

T1 sequence (Q9Y697 56-457): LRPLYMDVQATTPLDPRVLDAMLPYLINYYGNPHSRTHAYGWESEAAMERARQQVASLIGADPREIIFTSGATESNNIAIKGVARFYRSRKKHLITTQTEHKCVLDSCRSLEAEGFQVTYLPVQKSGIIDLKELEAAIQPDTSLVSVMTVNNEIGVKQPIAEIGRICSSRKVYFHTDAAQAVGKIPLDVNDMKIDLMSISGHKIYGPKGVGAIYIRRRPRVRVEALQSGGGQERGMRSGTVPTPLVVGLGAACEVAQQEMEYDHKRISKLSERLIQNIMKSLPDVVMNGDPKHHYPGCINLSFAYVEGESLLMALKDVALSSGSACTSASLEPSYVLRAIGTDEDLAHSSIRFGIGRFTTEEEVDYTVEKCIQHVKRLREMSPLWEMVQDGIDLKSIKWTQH
T2 sequence (Q9Y697 56-457 H156A): as the sequence (Q9Y697 56-457) above, with H101A counted along it

Structure (SMILES): COc1cc(/C=N/NC(=O)COc2ccc(Cl)cc2Cl)ccc1O [Compound 53]
- IC50 [1]: 40.5 ± 3.85 µM
- Ki [1]: 6.4 ± 0.48 µM
- Vmax ([1]; inhibitor 5 μM): 144.2 ± 2.81 nmol/min/mg
- Vmax ([1]; inhibitor 10 μM): 143.3 ± 4.06 nmol/min/mg
- Vmax ([1]; inhibitor 20 μM): 144.1 ± 4.88 nmol/min/mg
- Vmax ([1]; inhibitor 50 μM): 143.5 ± 4.31 nmol/min/mg
- Vmax ([1]; inhibitor 100 μM): 143.8 ± 8.75 nmol/min/mg
- inhibition at 50 µM ([1]; read-out: inhibition of NFS1 activity): 40 to 50%
- Inhibition Type ([1]; versus substrate L-cysteine): competitive inhibitors
- IC50 [2]: 97.3 ± 1.39 µM
- inhibitory effect on CBS [3]: no significant inhibitory effects
